# Measured values: patent US7531548B2, “HIV inhibiting 5-carbo- or heterocyclic substituted pyrimidines” (priority 2004, dated 2009)
row,melting point,Compound
1,> 250 °C,CCc1cscn1
2,140 °C,Cc1cc(/C=C/C#N)cc(C)c1Nc1nc(Nc2ccc(C#N)cc2)ncc1NCc1cccnc1
3,236 °C,Cc1cc(/C=C/C#N)cc(C)c1Nc1nc(Nc2ccc(C#N)cc2)ncc1CNCc1cccnc1
